Source: US20210045385A1, “PYRIDAZINONE-SUBSTITUTED KETOXIMES AS HERBICIDES” (FMC Corporation, priority 2018, published 2021)

Key:
Format in all cases: in vivo
[1] = system: pigweed (Amaranthus retroflexus); experiment: Test A preemergence, visual plant response rating; conditions: for Pigweed plant response rating: 125 g ai/ha, preemergence, 0 to 100 scale, 0 no effect, 100 complete control; for Pigweed plant response rating (0 to 100 scale): 500 g ai/ha Preemergence, approx. 10 days
Outline: (§1)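 Formulated in a non-phytotoxic solvent mixture including surfactant, each test chemical was sprayed onto the soil surface after sowing, or onto seedlings 2 to 10 cm high. Roughly 10 days later, plants were compared with untreated controls and rated for injury from 0 (no effect) to 100 (complete control).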

[2] = system: ragweed (common ragweed, Ambrosia elatior); experiment: Test A preemergence, visual plant response rating; conditions: for Ragweed plant response rating: 125 g ai/ha, preemergence, 0 to 100 scale, 0 no effect, 100 complete control; for Ragweed plant response rating (0 to 100 scale): 500 g ai/ha Preemergence, approx. 10 days
Outline: as §1

[3] = system: barnyardgrass (Echinochloa crus-galli); experiment: Test A preemergence, visual plant response rating; conditions: for Barnyardgrass plant response rating: 125 g ai/ha, preemergence, 0 to 100 scale, 0 no effect, 100 complete control; for Barnyardgrass plant response rating (0 to 100 scale): 500 g ai/ha Preemergence, approx. 10 days
Outline: as §1

[4] = system: foxtail, giant (giant foxtail, Setaria faberii); experiment: Test A preemergence, visual plant response rating; conditions: for Foxtail, Giant plant response rating: 125 g ai/ha, preemergence, 0 to 100 scale, 0 no effect, 100 complete control; for Foxtail, Giant plant response rating (0 to 100 scale): 500 g ai/ha Preemergence, approx. 10 days
Outline: as §1

[5] = system: Italian ryegrass (Lolium multiflorum); experiment: Test A preemergence, visual plant response rating; conditions: for Ryegrass, Italian plant response rating: 125 g ai/ha, preemergence, 0 to 100 scale, 0 no effect, 100 complete control; for Ryegrass, Italian plant response rating (0 to 100 scale): 500 g ai/ha Preemergence, approx. 10 days
Outline: as §1

[6] = system: kochia (Kochia scoparia); experiment: Test A preemergence, visual plant response rating; conditions: for Kochia plant response rating: 125 g ai/ha, preemergence, 0 to 100 scale, 0 no effect, 100 complete control; for Kochia plant response rating (0 to 100 scale): 500 g ai/ha Preemergence, approx. 10 days
Outline: as §1

[7] = system: corn (Zea mays); experiment: Test A postemergence, visual plant response rating; conditions: for Corn plant response rating (0 to 100 scale): 500 g ai/ha, postemergence, 0 is no effect, 100 is complete control; for Corn plant response rating: Postemergence, 125 g ai/ha, 0 to 100 scale (0 no effect, 100 complete control)
Outline: as §1

[8] = system: pigweed (Amaranthus retroflexus); experiment: Test A postemergence, visual plant response rating; conditions: for Pigweed plant response rating (0 to 100 scale): 500 g ai/ha, postemergence, 0 is no effect, 100 is complete control; for Pigweed plant response rating: Postemergence, 125 g ai/ha, 0 to 100 scale (0 no effect, 100 complete control)
Outline: as §1

[9] = system: blackgrass (Alopecurus myosuroides); experiment: Test A postemergence, visual plant response rating; conditions: for Blackgrass plant response rating (0 to 100 scale): 500 g ai/ha, postemergence, 0 is no effect, 100 is complete control; for Blackgrass plant response rating: Postemergence, 125 g ai/ha, 0 to 100 scale (0 no effect, 100 complete control)
Outline: as §1

[10] = system: ragweed (common ragweed, Ambrosia elatior); experiment: Test A postemergence, visual plant response rating; conditions: for Ragweed plant response rating (0 to 100 scale): 500 g ai/ha, postemergence, 0 is no effect, 100 is complete control; for Ragweed plant response rating: Postemergence, 125 g ai/ha, 0 to 100 scale (0 no effect, 100 complete control)
Outline: as §1

[11] = system: barnyardgrass (Echinochloa crus-galli); experiment: Test A postemergence, visual plant response rating; conditions: for Barnyardgrass plant response rating (0 to 100 scale): 500 g ai/ha, postemergence, 0 is no effect, 100 is complete control; for Barnyardgrass plant response rating: Postemergence, 125 g ai/ha, 0 to 100 scale (0 no effect, 100 complete control)
Outline: as §1

[12] = system: foxtail, giant (giant foxtail, Setaria faberii); experiment: Test A postemergence, visual plant response rating; conditions: for Foxtail, Giant plant response rating (0 to 100 scale): 500 g ai/ha, postemergence, 0 is no effect, 100 is complete control; for Foxtail, Giant plant response rating: Postemergence, 125 g ai/ha, 0 to 100 scale (0 no effect, 100 complete control)
Outline: as §1

[13] = system: Italian ryegrass (Lolium multiflorum); experiment: Test A postemergence, visual plant response rating; conditions: for Ryegrass, Italian plant response rating (0 to 100 scale): 500 g ai/ha, postemergence, 0 is no effect, 100 is complete control; for Ryegrass, Italian plant response rating: Postemergence, 125 g ai/ha, 0 to 100 scale (0 no effect, 100 complete control)
Outline: as §1

[14] = system: galium (catchweed bedstraw, Galium aparine); experiment: Test A postemergence, visual plant response rating; conditions: for Galium plant response rating (0 to 100 scale): 500 g ai/ha, postemergence, 0 is no effect, 100 is complete control; for Galium plant response rating: Postemergence, 125 g ai/ha, 0 to 100 scale (0 no effect, 100 complete control)
Outline: as §1

[15] = system: wheat (Triticum aestivum); experiment: Test A postemergence, visual plant response rating; conditions: for Wheat plant response rating (0 to 100 scale): 500 g ai/ha, postemergence, 0 is no effect, 100 is complete control; for Wheat plant response rating: Postemergence, 125 g ai/ha, 0 to 100 scale (0 no effect, 100 complete control)
Outline: as §1

[16] = system: kochia (Kochia scoparia); experiment: Test A postemergence, visual plant response rating; conditions: for Kochia plant response rating (0 to 100 scale): 500 g ai/ha, postemergence, 0 is no effect, 100 is complete control; for Kochia plant response rating: Postemergence, 125 g ai/ha, 0 to 100 scale (0 no effect, 100 complete control)
Outline: as §1

[17] = system: rice (Oryza sativa); experiment: Test B flooded paddy test, visual plant response rating; conditions: 250 g ai/ha, Flood, applied to paddy water, 2-leaf stage, evaluated after 13 to 15 days
Outline: (§2)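 Compounds added straight into paddy water of pots flooded to 3 cm, with 2-leaf-stage plants of the four species; water level held throughout.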

[18] = system: barnyardgrass (Echinochloa crus-galli); experiment: as above; conditions: 250 g ai/ha, Flood, applied to paddy water, 2-leaf stage, evaluated after 13 to 15 days
Outline: as §2

[19] = system: ducksalad (Heteranhera limosa); experiment: as above; conditions: 250 g ai/ha, Flood, applied to paddy water, 2-leaf stage, evaluated after 13 to 15 days
Outline: as §2

[20] = system: sedge, umbrella (small-flower umbrella sedge, Cyperus difformis); experiment: as above; conditions: 250 g ai/ha, Flood, applied to paddy water, 2-leaf stage, evaluated after 13 to 15 days
Outline: as §2

SMILES	Pigweed plant response rating [1]	Pigweed plant response rating (0 to 100 scale) [1]	Ragweed plant response rating [2]	Ragweed plant response rating (0 to 100 scale) [2]	Barnyardgrass plant response rating [3]	Barnyardgrass plant response rating (0 to 100 scale) [3]	Foxtail, Giant plant response rating [4]	Foxtail, Giant plant response rating (0 to 100 scale) [4]	Ryegrass, Italian plant response rating [5]	Ryegrass, Italian plant response rating (0 to 100 scale) [5]	Kochia plant response rating [6]	Kochia plant response rating (0 to 100 scale) [6]	Corn plant response rating (0 to 100 scale) [7]	Corn plant response rating [7]	Pigweed plant response rating (0 to 100 scale) [8]	Pigweed plant response rating [8]	Blackgrass plant response rating (0 to 100 scale) [9]	Blackgrass plant response rating [9]	Ragweed plant response rating (0 to 100 scale) [10]	Ragweed plant response rating [10]	other results
C#CCO/N=C(/c1c(O)c(C)nn(C)c1=O)c1cccc2ccccc12 [Compound 82, 5-hydroxy-2,6-dimethyl-4-[(E)-[(2-propyn-1-yloxy)imino]-1-naphthalenylmethyl]-3(2H)-pyridazinone]	100	100	90	100	60	100	100	100	90	100	10	80	30	0	90	70	100	90	100	90	Barnyardgrass plant response rating (0 to 100 scale) [11]: 80; Barnyardgrass plant response rating [11]: 50; Foxtail, Giant plant response rating (0 to 100 scale) [12]: 80; Foxtail, Giant plant response rating [12]: 70; Ryegrass, Italian plant response rating (0 to 100 scale) [13]: 80; Ryegrass, Italian plant response rating [13]: 80; Galium plant response rating (0 to 100 scale) [14]: 100; Galium plant response rating [14]: 90; Wheat plant response rating (0 to 100 scale) [15]: 80; Wheat plant response rating [15]: 50; Kochia plant response rating (0 to 100 scale) [16]: 90; Kochia plant response rating [16]: 80; Plant response rating, Rice (0 to 100 scale, 0 is no effect, 100 is complete control) [17]: 0; Plant response rating, Barnyardgrass (0 to 100 scale, 0 is no effect, 100 is complete control) [18]: 0; Plant response rating, Ducksalad (0 to 100 scale, 0 is no effect, 100 is complete control) [19]: 0; Plant response rating, Sedge, Umbrella (0 to 100 scale, 0 is no effect, 100 is complete control) [20]: 0
C#CCO/N=C(\c1c(O)c(C)nn(C)c1=O)c1cccc2ccccc12 [Compound 83, 5-hydroxy-2,6-dimethyl-4-[(Z)-[(2-propyn-1-yloxy)imino]-1-naphthalenylmethyl]-3(2H)-pyridazinone]	100	100	100	100	80	100	90	100	80	100	20	100	40	20	90	80	100	90	100	90	Barnyardgrass plant response rating (0 to 100 scale) [11]: 80; Barnyardgrass plant response rating [11]: 60; Foxtail, Giant plant response rating (0 to 100 scale) [12]: 80; Foxtail, Giant plant response rating [12]: 70; Ryegrass, Italian plant response rating (0 to 100 scale) [13]: 100; Ryegrass, Italian plant response rating [13]: 90; Galium plant response rating (0 to 100 scale) [14]: 100; Galium plant response rating [14]: 90; Wheat plant response rating (0 to 100 scale) [15]: 60; Wheat plant response rating [15]: 40; Kochia plant response rating (0 to 100 scale) [16]: 90; Kochia plant response rating [16]: 80; Plant response rating, Rice (0 to 100 scale, 0 is no effect, 100 is complete control) [17]: 0; Plant response rating, Barnyardgrass (0 to 100 scale, 0 is no effect, 100 is complete control) [18]: 0; Plant response rating, Ducksalad (0 to 100 scale, 0 is no effect, 100 is complete control) [19]: 75; Plant response rating, Sedge, Umbrella (0 to 100 scale, 0 is no effect, 100 is complete control) [20]: 70
